Results published in ChEMBL document CHEMBL4004877, “Synthesis and biological evaluation of chalcone, dihydrochalcone, and 1,3-diarylpropane analogs as anti-inflammatory agents” (Bioorg Med Chem Lett, 2017).
Converted amounts (≈) assume the structure as drawn.

Tested on: RAW264.7
Assay: Antiinflammatory activity in mouse RAW264.7 cells assessed as inhibition of LPS induced iNOS-dependent nitric oxide production at 1.25 ug/ml after 24 hrs by Griess assay relative to control
Assay type: functional
Settings: RAW264.7, 24 h

Structure (SMILES)	inhibition at 1.25 µg/mL
COc1ccc(CCC(=O)c2cccc(O)c2)cc1	5.1%
COc1ccc(CCCc2cccc(O)c2)cc1OC	13.9%
COc1ccc(C(=O)CCc2cccc(OC)c2OC)c(O)c1	0.8%
COc1ccc(/C=C/C(=O)c2ccc(OC)c(OC)c2)cc1OC	0.2%
COc1ccc(C(=O)/C=C/c2ccc3c(c2)OCO3)c(O)c1	50.2%
COc1cc(CCCc2cccc(O)c2)ccc1O	10.9%
COc1ccc(CCC(=O)c2ccc(OC)c(OC)c2)cc1O	2.9%
COc1ccc(CCCc2ccc(OC)cc2O)cc1	25.7%

Tested on: not listed separately
Assay: Cytotoxicity against LPS-stimulated mouse RAW264.7 cells assessed as cell viability at 10 ug/ml after 24 hrs by MTT assay relative to control
Assay type: cell-based
Settings: LPS-stimulated RAW264.7 cells, read-out: Activity

Structure (SMILES)	viability at 24 h, 10 ug/ml
COc1ccc(CCC(=O)c2cccc(O)c2)cc1	86.3%
COc1ccc(CCCc2cccc(O)c2)cc1OC	78.8%
COc1ccc(C(=O)CCc2cccc(OC)c2OC)c(O)c1	92.8%
COc1ccc(/C=C/C(=O)c2ccc(OC)c(OC)c2)cc1OC	60.4%
COc1ccc(C(=O)/C=C/c2ccc3c(c2)OCO3)c(O)c1	72%
COc1cc(CCCc2cccc(O)c2)ccc1O	76.1%
COc1ccc(CCC(=O)c2ccc(OC)c(OC)c2)cc1O	83.9%
COc1ccc(CCCc2ccc(OC)cc2O)cc1	73.8%

Tested on: not listed separately
Assay: Cytotoxicity against LPS-stimulated mouse RAW264.7 cells assessed as cell viability at 1.25 ug/ml after 24 hrs by MTT assay relative to control
Assay type: cell-based
Settings: LPS-stimulated RAW264.7 cells, read-out: Activity

Structure (SMILES)	viability at 24 h, 1.25 ug/ml
COc1ccc(CCC(=O)c2cccc(O)c2)cc1	97.5%
COc1ccc(CCCc2cccc(O)c2)cc1OC	99.9%
COc1ccc(C(=O)CCc2cccc(OC)c2OC)c(O)c1	96.6%
COc1ccc(/C=C/C(=O)c2ccc(OC)c(OC)c2)cc1OC	94%
COc1ccc(C(=O)/C=C/c2ccc3c(c2)OCO3)c(O)c1	96.4%
COc1cc(CCCc2cccc(O)c2)ccc1O	100%
COc1ccc(CCC(=O)c2ccc(OC)c(OC)c2)cc1O	95.6%
COc1ccc(CCCc2ccc(OC)cc2O)cc1	98.9%

Tested on: RAW264.7
Assay: Antiinflammatory activity in mouse RAW264.7 cells assessed as inhibition of LPS induced iNOS-dependent nitric oxide production at 10 ug/ml after 24 hrs by Griess assay relative to control
Assay type: functional
Settings: RAW264.7, 24 h

Structure (SMILES)	inhibition at 10 µg/mL
COc1ccc(CCC(=O)c2cccc(O)c2)cc1	40.5%
COc1ccc(CCCc2cccc(O)c2)cc1OC	44.7%
COc1ccc(C(=O)CCc2cccc(OC)c2OC)c(O)c1	18.6%
COc1ccc(/C=C/C(=O)c2ccc(OC)c(OC)c2)cc1OC	3.3%
COc1ccc(C(=O)/C=C/c2ccc3c(c2)OCO3)c(O)c1	8.6%
COc1cc(CCCc2cccc(O)c2)ccc1O	80.4%
COc1ccc(CCC(=O)c2ccc(OC)c(OC)c2)cc1O	31%
COc1ccc(CCCc2ccc(OC)cc2O)cc1	72.5%

Tested on: RAW264.7
Assay: Antiinflammatory activity in mouse RAW264.7 cells assessed as inhibition of LPS induced iNOS-dependent nitric oxide production after 24 hrs by Griess assay
Assay type: functional, cell-based
Settings: RAW264.7, 24 h

Structure (SMILES)	IC50
COc1ccc(CCC(=O)c2cccc(O)c2)cc1	> 10 mg/L
COc1ccc(CCCc2cccc(O)c2)cc1OC	> 10 mg/L
COc1ccc(C(=O)CCc2cccc(OC)c2OC)c(O)c1	> 10 mg/L
COc1ccc(/C=C/C(=O)c2ccc(OC)c(OC)c2)cc1OC	> 10 mg/L
COc1ccc(C(=O)/C=C/c2ccc3c(c2)OCO3)c(O)c1	1.25 mg/L (≈ 4.19 µM)
COc1cc(CCCc2cccc(O)c2)ccc1O	7.13 mg/L (≈ 27.6 µM)
COc1ccc(CCC(=O)c2ccc(OC)c(OC)c2)cc1O	> 10 mg/L
COc1ccc(CCCc2ccc(OC)cc2O)cc1	6.37 mg/L (≈ 23.4 µM)

Tested on: not listed separately
Assay: Cytotoxicity against LPS-stimulated mouse RAW264.7 cells assessed as cell viability at 2.5 ug/ml after 24 hrs by MTT assay relative to control
Assay type: cell-based
Settings: LPS-stimulated RAW264.7 cells, read-out: Activity

Structure (SMILES)	viability at 24 h, 2.5 ug/ml
COc1ccc(CCC(=O)c2cccc(O)c2)cc1	97.1%
COc1ccc(CCCc2cccc(O)c2)cc1OC	98.5%
COc1ccc(C(=O)CCc2cccc(OC)c2OC)c(O)c1	95.2%
COc1ccc(/C=C/C(=O)c2ccc(OC)c(OC)c2)cc1OC	91.9%
COc1ccc(C(=O)/C=C/c2ccc3c(c2)OCO3)c(O)c1	91.7%
COc1cc(CCCc2cccc(O)c2)ccc1O	99.5%
COc1ccc(CCC(=O)c2ccc(OC)c(OC)c2)cc1O	92.1%
COc1ccc(CCCc2ccc(OC)cc2O)cc1	96.8%

Tested on: not listed separately
Assay: Cytotoxicity against LPS-stimulated mouse RAW264.7 cells assessed as cell viability at 5 ug/ml after 24 hrs by MTT assay relative to control
Assay type: cell-based
Settings: LPS-stimulated RAW264.7 cells, read-out: Activity

Structure (SMILES)	viability at 24 h, 5 ug/ml
COc1ccc(CCC(=O)c2cccc(O)c2)cc1	94.5%
COc1ccc(CCCc2cccc(O)c2)cc1OC	94.8%
COc1ccc(C(=O)CCc2cccc(OC)c2OC)c(O)c1	92.7%
COc1ccc(/C=C/C(=O)c2ccc(OC)c(OC)c2)cc1OC	81.3%
COc1ccc(C(=O)/C=C/c2ccc3c(c2)OCO3)c(O)c1	75.2%
COc1cc(CCCc2cccc(O)c2)ccc1O	97.7%
COc1ccc(CCC(=O)c2ccc(OC)c(OC)c2)cc1O	91.8%
COc1ccc(CCCc2ccc(OC)cc2O)cc1	94.6%

Tested on: RAW264.7
Assay: Antiinflammatory activity in mouse RAW264.7 cells assessed as inhibition of LPS induced iNOS-dependent nitric oxide production at 5 ug/ml after 24 hrs by Griess assay relative to control
Assay type: functional
Settings: RAW264.7, 24 h

Structure (SMILES)	inhibition at 5 µg/mL
COc1ccc(CCC(=O)c2cccc(O)c2)cc1	20.1%
COc1ccc(CCCc2cccc(O)c2)cc1OC	15.4%
COc1ccc(C(=O)CCc2cccc(OC)c2OC)c(O)c1	5.4%
COc1ccc(/C=C/C(=O)c2ccc(OC)c(OC)c2)cc1OC	2%
COc1ccc(C(=O)/C=C/c2ccc3c(c2)OCO3)c(O)c1	3%
COc1cc(CCCc2cccc(O)c2)ccc1O	18.1%
COc1ccc(CCC(=O)c2ccc(OC)c(OC)c2)cc1O	17.3%
COc1ccc(CCCc2ccc(OC)cc2O)cc1	37.8%

Tested on: RAW264.7
Assay: Antiinflammatory activity in mouse RAW264.7 cells assessed as inhibition of LPS induced iNOS-dependent nitric oxide production at 2.5 ug/ml after 24 hrs by Griess assay relative to control
Assay type: functional
Settings: RAW264.7, 24 h

Structure (SMILES)	inhibition at 2.5 µg/mL
COc1ccc(CCC(=O)c2cccc(O)c2)cc1	11%
COc1ccc(CCCc2cccc(O)c2)cc1OC	5.4%
COc1ccc(C(=O)CCc2cccc(OC)c2OC)c(O)c1	2.8%
COc1ccc(/C=C/C(=O)c2ccc(OC)c(OC)c2)cc1OC	1.7%
COc1ccc(C(=O)/C=C/c2ccc3c(c2)OCO3)c(O)c1	5.7%
COc1cc(CCCc2cccc(O)c2)ccc1O	15.9%
COc1ccc(CCC(=O)c2ccc(OC)c(OC)c2)cc1O	6.3%
COc1ccc(CCCc2ccc(OC)cc2O)cc1	30.5%
